Source: ChEMBL document CHEMBL1201862, “PubChem BioAssay data set” (2004)
Activity calls are given as the source filed them.

Tests used:
[1] = viability loss of HPDE-C7K cells – cell-based, fluorescence, HTS, primary screen (AID 431); type: functional; conditions: Homo sapiens
[2] = A Cell Based Secondary Assay To Explore Cytotoxicity of Compounds that Sensitize Mycobacterium Tuberculosis to Beta-Lactam Antibiotics.; type: functional
[3] = HPDE-C7 pancreatic duct cell viability loss – fluorescence, HTS (AID 430); type: functional, cell-based; conditions: Homo sapiens
[4] = Dd2 malaria parasite growth inhibition potency – SYBR Green, dry powder samples, dose response (AID 1159566); type: functional, cell-based;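 further: potency for growth inhibition with lower SYBR green DNA signal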
[5] = toxicity to human HepG2 hepatoma cells – cell-based, plate reader, dry powder samples, cytotoxicity control, dose response (AID 1159569); type: functional;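 further: inhibitor potency with signal falling toward the positive control level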
[6] = growth inhibition of yeast DHODH-expressing 3D7 parasites – SYBR Green, dry powder samples, dose response (AID 1159570); type: functional, cell-based;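 further: parasite growth measured after 72 hours of compound exposure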
[7] = P. falciparum Dd2 growth inhibitors, dose response, SYBR Green, cherry-picked samples (AID 1159567); type: functional, cell-based
[8] = growth inhibition of PfATP4-mutant resistant parasites – NITD609-resistant line, SYBR Green, dry powder, dose response (AID 1159571); type: functional, cell-based;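 further: parasites synchronized at ring stage by sorbitol before testing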
[9] = biological target: Paired box protein Pax-8 (Homo sapiens, UniProt Q06710); experiment: PAX8 transcriptional activity inhibition in RMG-I – RMG-I cells, luciferase, cherry-pick, dose response (AID 687027); type: functional, cell-based;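 further: luciferase reporter driven by Pax8 target thyroperoxidase promoter measured by SteadyGlo luminescence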
[10] = reduced cellular PGC1a acetyl-lysine signal – cell-based, cherry-picked samples, dose response (AID 720514); type: functional;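 further: potency may reflect raised or lowered acetylation signal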
[11] = OVCAR8 cell viability loss – plate reader, dry powder samples, PAX8 project, dose response (AID 743197); type: functional, cell-based; conditions: OVCAR-8
[12] = OVCAR-3 cell viability loss – plate reader, dry powder samples, PAX8 inhibitor project, dose response (AID 743044); type: functional, cell-based
[13] = biological target: Lytic switch protein BZLF1 (Epstein-Barr virus (strain B95-8) (HHV-4) (Human herpesvirus 4), UniProt P03206); experiment: inhibition of BZLF1 ZTA DNA binding – biochemical, fluorescence polarization, Epstein-Barr virus, 1536-well, counter-screen for EBNA-1 inhibitor project, dose response (AID 2377); parameters: species or system human gammaherpesvirus 4;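 further: fluorescence polarization of Cy5-labelled ZRE DNA probe bound by purified Zta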
[14] = biological target: Epstein-Barr nuclear antigen 1 (Epstein-Barr virus (strain B95-8) (HHV-4) (Human herpesvirus 4), UniProt P03211); experiment: inhibition of EBV nuclear antigen 1 DNA binding – biochemical, fluorescence polarization, 1536-well, dose response (AID 2381); parameters: species or system human gammaherpesvirus 4;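 further: fluorescence polarization of a Cy5 DNA probe bound by EBNA-1 protein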
[15] = biological target: Estrogen receptor (Homo sapiens, UniProt P03372);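 further: potency for inhibiting coactivator peptide recruitment to the receptor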
[16] = biological target: T1, Bcl-2-like protein 10 (Homo sapiens, UniProt Q9HD36); experiment: Bcl-B/TR3 peptide binding disruption – biochemical, fluorescence polarization, FITC-TR3 peptide, selectivity assay for Bfl-1 inhibitor project, primary screen (AID 748);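 further: fluorescence polarization from a fluorescein-labelled TR3 peptide binding purified Bcl-B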
T1 sequence (Q9HD36 whole entry): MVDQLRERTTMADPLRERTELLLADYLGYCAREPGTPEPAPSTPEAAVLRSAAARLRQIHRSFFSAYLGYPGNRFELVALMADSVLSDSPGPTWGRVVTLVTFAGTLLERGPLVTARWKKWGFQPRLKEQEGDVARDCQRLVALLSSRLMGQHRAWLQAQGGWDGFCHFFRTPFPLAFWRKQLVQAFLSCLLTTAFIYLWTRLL

[17] = biological target: Estrogen receptor beta (Homo sapiens, UniProt Q92731); experiment: blockers of SRC-3 recruitment to ERβ – biochemical, ELISA, streptavidin-HRP readout, orthogonal assay, confirmation (AID 1060)
[18] = biological target: Voltage-gated inwardly rectifying potassium channel KCNH2 (Homo sapiens, UniProt Q12809); experiment: concentration-dependent hERG rescue from blockers – cell-based, thallium flux, dose response (AID 2121); type: ADME
[19] = glucagon-like peptide-1 release potency in STC-1, concentration-response, half-maximal inhibitory concentration in the STC-1 line (AID 1117345); type: functional, cell-based
[20] = IC50 of insulin release inhibition, rat insulinoma INS-1E line, 5 mM glucose, cell-based (AID 1117331); type: functional
[21] = Potency on glucagon-like peptide 1 release, dose-response in NCI-H716 cell line, half maximal inhibitory concentration (AID 1117344); type: functional, cell-based

Lytic switch protein BZLF1, sequence (P03206 whole entry): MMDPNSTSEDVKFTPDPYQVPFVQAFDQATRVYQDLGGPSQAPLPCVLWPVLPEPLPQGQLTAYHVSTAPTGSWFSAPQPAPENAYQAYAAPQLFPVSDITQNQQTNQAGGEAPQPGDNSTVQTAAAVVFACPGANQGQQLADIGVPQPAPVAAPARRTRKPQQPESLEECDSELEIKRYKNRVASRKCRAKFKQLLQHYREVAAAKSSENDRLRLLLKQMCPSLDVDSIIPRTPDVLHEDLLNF
Epstein-Barr nuclear antigen 1, sequence (P03211 whole entry): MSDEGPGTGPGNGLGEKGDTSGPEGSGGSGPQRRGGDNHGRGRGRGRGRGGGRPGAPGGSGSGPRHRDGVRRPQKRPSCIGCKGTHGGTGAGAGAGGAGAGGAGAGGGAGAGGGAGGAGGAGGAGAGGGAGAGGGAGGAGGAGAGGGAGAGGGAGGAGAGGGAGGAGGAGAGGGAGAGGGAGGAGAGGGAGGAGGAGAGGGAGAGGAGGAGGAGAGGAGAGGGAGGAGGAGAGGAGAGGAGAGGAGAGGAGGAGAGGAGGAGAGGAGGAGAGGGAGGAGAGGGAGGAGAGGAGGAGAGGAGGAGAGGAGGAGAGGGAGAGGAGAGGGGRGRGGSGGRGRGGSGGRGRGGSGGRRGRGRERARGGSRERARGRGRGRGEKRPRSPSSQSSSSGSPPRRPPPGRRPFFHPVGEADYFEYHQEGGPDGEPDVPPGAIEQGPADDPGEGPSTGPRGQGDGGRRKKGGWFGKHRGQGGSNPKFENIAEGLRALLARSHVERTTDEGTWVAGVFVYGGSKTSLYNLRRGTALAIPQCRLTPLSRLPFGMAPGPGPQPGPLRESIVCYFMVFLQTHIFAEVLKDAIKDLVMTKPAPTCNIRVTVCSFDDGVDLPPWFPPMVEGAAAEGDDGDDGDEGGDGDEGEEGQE
Paired box protein Pax-8, sequence (Q06710 whole entry): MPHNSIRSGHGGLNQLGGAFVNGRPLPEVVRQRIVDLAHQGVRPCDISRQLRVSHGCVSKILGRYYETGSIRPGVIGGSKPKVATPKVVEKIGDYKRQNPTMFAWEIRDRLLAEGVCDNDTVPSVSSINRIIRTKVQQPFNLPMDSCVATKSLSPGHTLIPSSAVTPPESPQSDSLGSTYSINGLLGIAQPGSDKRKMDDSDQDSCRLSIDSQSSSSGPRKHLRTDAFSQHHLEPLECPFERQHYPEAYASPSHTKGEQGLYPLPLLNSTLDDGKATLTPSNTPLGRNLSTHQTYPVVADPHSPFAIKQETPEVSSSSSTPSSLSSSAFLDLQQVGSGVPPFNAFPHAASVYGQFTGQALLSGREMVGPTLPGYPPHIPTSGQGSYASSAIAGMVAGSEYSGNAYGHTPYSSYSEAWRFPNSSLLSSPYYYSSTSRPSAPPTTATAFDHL
Voltage-gated inwardly rectifying potassium channel KCNH2, sequence (Q12809 whole entry): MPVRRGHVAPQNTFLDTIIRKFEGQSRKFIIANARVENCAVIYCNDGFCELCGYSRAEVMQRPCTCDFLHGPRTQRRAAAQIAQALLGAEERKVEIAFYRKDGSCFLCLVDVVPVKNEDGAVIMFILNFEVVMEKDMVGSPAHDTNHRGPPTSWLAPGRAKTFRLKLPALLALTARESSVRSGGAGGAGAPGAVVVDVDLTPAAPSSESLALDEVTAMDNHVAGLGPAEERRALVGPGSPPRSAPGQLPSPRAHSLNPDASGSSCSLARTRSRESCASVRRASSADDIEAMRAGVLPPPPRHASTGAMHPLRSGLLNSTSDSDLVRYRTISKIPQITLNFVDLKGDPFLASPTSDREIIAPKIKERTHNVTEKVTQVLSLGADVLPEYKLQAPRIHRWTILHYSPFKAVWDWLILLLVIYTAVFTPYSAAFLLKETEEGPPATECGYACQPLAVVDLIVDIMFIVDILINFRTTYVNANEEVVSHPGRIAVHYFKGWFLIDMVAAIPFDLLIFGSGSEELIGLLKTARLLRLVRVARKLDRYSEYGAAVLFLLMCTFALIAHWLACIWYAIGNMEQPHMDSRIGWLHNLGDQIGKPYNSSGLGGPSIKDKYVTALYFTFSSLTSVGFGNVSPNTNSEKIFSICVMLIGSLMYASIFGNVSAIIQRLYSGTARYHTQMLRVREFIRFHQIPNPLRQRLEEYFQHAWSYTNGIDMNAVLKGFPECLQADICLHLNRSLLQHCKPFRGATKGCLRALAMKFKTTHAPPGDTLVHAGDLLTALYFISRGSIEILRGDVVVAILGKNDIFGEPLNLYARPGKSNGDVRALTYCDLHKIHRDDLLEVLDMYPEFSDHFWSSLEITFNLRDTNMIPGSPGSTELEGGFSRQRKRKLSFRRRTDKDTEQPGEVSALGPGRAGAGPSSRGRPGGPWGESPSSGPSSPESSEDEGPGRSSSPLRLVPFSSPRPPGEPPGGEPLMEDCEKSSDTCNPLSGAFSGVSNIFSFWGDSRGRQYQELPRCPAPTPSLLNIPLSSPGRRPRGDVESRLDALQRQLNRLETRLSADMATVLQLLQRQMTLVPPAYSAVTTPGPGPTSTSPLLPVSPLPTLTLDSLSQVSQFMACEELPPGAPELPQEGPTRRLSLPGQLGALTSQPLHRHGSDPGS
Estrogen receptor, sequence (P03372 whole entry): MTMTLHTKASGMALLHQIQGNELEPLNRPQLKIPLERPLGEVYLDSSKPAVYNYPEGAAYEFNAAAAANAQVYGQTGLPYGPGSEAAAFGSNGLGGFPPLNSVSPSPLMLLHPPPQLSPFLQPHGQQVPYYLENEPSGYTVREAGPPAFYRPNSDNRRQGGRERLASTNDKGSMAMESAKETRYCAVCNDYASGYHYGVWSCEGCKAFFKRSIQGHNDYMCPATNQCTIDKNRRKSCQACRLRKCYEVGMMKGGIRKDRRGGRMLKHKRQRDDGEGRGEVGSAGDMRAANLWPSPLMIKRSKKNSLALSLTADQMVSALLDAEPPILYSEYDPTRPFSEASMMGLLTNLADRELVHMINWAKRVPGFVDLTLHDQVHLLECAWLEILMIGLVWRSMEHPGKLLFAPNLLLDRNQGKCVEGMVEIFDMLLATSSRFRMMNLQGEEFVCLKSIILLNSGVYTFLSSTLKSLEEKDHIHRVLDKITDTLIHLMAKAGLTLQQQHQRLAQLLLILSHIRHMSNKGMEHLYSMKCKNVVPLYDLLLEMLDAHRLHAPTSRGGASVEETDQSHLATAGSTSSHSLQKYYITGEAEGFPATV
Estrogen receptor beta, sequence (Q92731 whole entry): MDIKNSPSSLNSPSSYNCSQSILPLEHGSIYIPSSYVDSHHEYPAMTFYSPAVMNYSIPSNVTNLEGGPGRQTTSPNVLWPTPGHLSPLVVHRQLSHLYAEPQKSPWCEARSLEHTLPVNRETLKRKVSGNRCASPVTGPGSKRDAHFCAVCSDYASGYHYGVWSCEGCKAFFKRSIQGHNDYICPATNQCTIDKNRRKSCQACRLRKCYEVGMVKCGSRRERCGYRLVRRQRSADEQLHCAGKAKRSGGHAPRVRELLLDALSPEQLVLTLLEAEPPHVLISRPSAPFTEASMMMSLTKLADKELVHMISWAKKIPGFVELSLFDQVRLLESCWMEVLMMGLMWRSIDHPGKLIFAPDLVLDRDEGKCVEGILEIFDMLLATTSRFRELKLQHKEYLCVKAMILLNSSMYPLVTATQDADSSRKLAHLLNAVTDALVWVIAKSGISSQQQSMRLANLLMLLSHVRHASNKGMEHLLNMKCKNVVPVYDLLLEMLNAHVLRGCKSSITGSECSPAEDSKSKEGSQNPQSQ

## CC(O)/C=C/c1ccc2ccccc2n1 (stereo not drawn)
[1]
  EC50: > 20 µM (not active)
[2]
  CC50: 35.2 µM (active)
[3]
  EC50: 17.8 µM (active)

## C[C@H](CO)N1C[C@H](C)[C@@H](CN(C)Cc2ccc(-c3ccccc3)cc2)OCc2ccccc2-c2c(n(C)c3ccccc23)C1=O
[4]
  AC50: 0.865 µM (active)
[5]
  AC50: 19.1 µM (active)
[6]
  AC50: 2.06 µM (active)
[7]
  AC50: 2.35 µM (active)
[8]
  AC50: 1.46 µM (active)

## COc1cccc(-c2ccc([C@@H]3[C@@H]4CN(C(=O)C5CC5)C[C@H]3N4)cc2)c1
[4]
  AC50: 0.634 µM (active)
[5]
  AC50: 34.3 µM (active)
[9]
  AC50: 3.06 µM (active)
[6]
  AC50: 0.85 µM (active)
[10]
  AC50: 24.1 µM (active)
[11]
  AC50: 39 µM (active)
[12]
  AC50: 43.6 µM (active)
[7]
  AC50: 0.949 µM (active)
[8]
  AC50: 1.03 µM (active)

## O=C(NCc1ccc2c(c1)OCO2)C1CCC(CNS(=O)(=O)c2ccc(Cl)cc2)CC1 (stereo not drawn)
[13]
  IC50: > 111 µM (not active)
[14]
  IC50: > 148 µM (not active)

## Cc1cc(NC(=O)CSc2nc3c(c(=O)n2CCc2ccccc2)SC(C)C3)no1 (stereo not drawn)
[15]
  IC50: 33.6 µM (not active)

## COc1ccc(NC(=O)c2noc3c2CCC3)cc1
[16]
  IC50: 12.6 µM (active)
[17]
  IC50: < 0.023 µM (not active)

## Cc1ccc(C(=O)CC(=O)c2cccc(F)c2)c(O)c1
[18]
  EC50: 3.76 µM (active)

## CCCCCNC(=N)N/N=C/c1c[nH]c2ccc(OC)cc12 [TEGASEROD]
[19]
  IC50: > 40 µM (inactive)
[20]
  IC50: 16.8 µM (inactive)
[21]
  IC50: 10.9 µM (inactive)

## CC1=C(C(=O)O)N2C(=O)[C@@H](NC(=O)[C@H](N)c3ccccc3)[C@H]2SC1 [CEPHALEXIN ANHYDROUS]
[19]
  IC50: > 40 µM (inactive)
[21]
  IC50: > 40 µM (inactive)
